For the experiment, the system named is lipase (produced by Sigma). Put plainly: Determination of lipase inhibitory activity (olive oil substrate emulsion, copper reagent, absorbance at 480 nm). The experiment is classed as biochemical. The following applies: 37° C., 30 minutes. The protocol:
Ten micro litter of a solution containing the composition of the present invention obtained in Example 2 or 3 (diluted with a buffer to a final concentration of 0.01 or 0.1 mg/mL) or 10 μL of a solution containing the composition of the present invention obtained in Example 4 (at a final concentration of 1 mg/mL) was added to 80 μL, of a substrate emulsion (3.0 g of obtained by adding olive oil to 100 mL of a buffer described below, followed by sonication). The resultant was allowed to stand at 37° C. for 10 minutes. Ten micro litter of a lipase solution (diluted with a buffer to a concentration of lipase (produced by Sigma) of 1.0 mg/mL) was added thereto. The mixture was reacted with an enzyme reaction at 37° C. for 30 minutes. […] A coloring solution was added to the supernatant for determination of an absorbance at 480 nm. […] Results were calculated by Equation 1 described below with absorbance of the following: the composition of the present invention; a blank replaced the lipase solution with a buffer; and a control replaced a solution containing the composition of the present invention with a buffer. […]
Inhibition rate (%)=[1−[absorbance of the composition of the present invention−blank absorbance]/[control absorbance−blank absorbance]]

As to purothionin [Positive control], the Lipase inhibition rate is on record as 76% (final concentration 0.1 mg/mL) and 96% (final concentration 1 mg/mL).

The record behind these values is US20100173025A1, “FAT ABSORPTION INHIBITORY COMPOSITION” (NISSHIN PHARMA INC., priority 2007, published 2010).
